The results in this text go back to ChEMBL document CHEMBL1149736, “A new acylated N-glycosyl lactam from Aristolochia contorta” (1992).

One assay has as its system Bacillus subtilis. Briefly: Antibacterial activity against Bacillus subtilis. Type of assay: functional.
Another assay relates to Micrococcus luteus. Briefly: Antibacterial activity against Sarcina lutea. The class given is functional.

Each structure is given as a SMILES string. Converted amounts (≈) assume the structure as drawn.

With `COc1cccc2c1cc1c3c(cc4c(c32)OCO4)C(=O)N1[C@@H]1O[C@H](COC(=O)/C=C/c2ccc(O)cc2)[C@@H](O)[C@H](O)[C@H]1O`, the MIC in the assay on Bacillus subtilis was 43.8 µg/mL (≈ 72.8 µM); in the assay with Micrococcus luteus it was 175 µg/mL (≈ 291 µM). The compound `O=C(N[C@H](CO)[C@H](O)c1ccc([N+](=O)[O-])cc1)C(Cl)Cl` [CHLORAMPHENICOL] returned an MIC against Micrococcus luteus of 5 µg/mL (≈ 15.5 µM).

As usually defined, the MIC is the lowest concentration that inhibits growth of the organism. High values mean a need for much substance, low ones inhibition by little substance.
